Patent publication US20220274968A1, “Oxazole And Oxadiazole Derivatives Useful As Agonists Of Free Fatty Acid Receptor 1” (GBiotech S.à.r.l., priority 2019, published 2022)

Test system: C57BI/6N male mice
Experiment: Oral glucose tolerance test (OGTT) in C57BI/6N male mice
Assay type: in vivo
Details: single peroral dose 60 min before glucose 2 g/kg; Z1558775684 20 mg/kg, Metformin 300 mg/kg; compared with the Vehicle-treated group; 5 mice per group
Description: Values are expressed as means of 5 animals tested. For glucose tolerance test (GTT), mice were orally treated with glucose at dose of 2 g/kg at the dose volume of 10 ml/kg after a 6-hour fasting. Glucose measurements were performed immediately before compound treatment (−60 min), at −30 min, 0 min (before glucose administration), and then 15, 30, 60, 90 and 120 min after glucose administration.
EXAMPLE 87: OGTT TESTING IN C57BI/6N MALE MICE
Each experimental group consisted of five male C57BI/6N mice. Animals were dosed once perorally with 20 mg/kg of tested compound Z1558775684. A control group was dosed with vehicle on the same schedule. Metformin at the dosage of 300 mg/kg was used as reference compound.
Compound Z1558775684 was dissolved/suspended in DMSO-PEG400-physiological saline (20%:50%:30%) at concentration 4 mg/ml. Metformin was dissolved in the same vehicle at concentration 60 mg/ml. The test samples were administered per os in the volume corresponding to 5 ml/kg body weight.
Single doses of test samples were administered 60 min before glucose treatment at 3 p.m.
The blood glucose level was measured after 6-hour fasting using Call Plus glucometer and specific test strips. Blood was obtained from the tail vein by incision of the tail tip, 5-6 μl of blood was used for each assay. […]

| Compound | glucose level during oral glucose tolerance test (OGTT) |
| --- | --- |
| CN(C)C(=N)N=C(N)N [Metformin] | Statistically significant decrease in glucose level |
| CCc1nc(N)nc(SCc2ncc(-c3cccc(Cl)c3)o2)n1 [Compound Z1558775684, 4-({[5-(3-chlorophenyl)-1,3-oxazol-2-yl]methyl}sulfanyl)-6-ethyl-1,3,5-triazin-2-amine] | Statistically significant decrease in glucose level |
